ChEMBL document CHEMBL6074671, “Discovery of Pyridine-2-Carboxamides Derivatives as Potent and Selective HPK1 Inhibitors for the Treatment of Cancer” (J Med Chem, 2024)

Experiments:
[1] = Inhibition of pSLP76 in human PBMC cells incubated for 4 hrs by HTRF method; format: cell-based
[2] = Effect on IL-2 secretion in human T cells by ELISA method; format: functional, cell-based; conditions: T-cell
[3] = Effect on IFN-gamma secretion in human T cells by ELISA method; format: functional, cell-based; conditions: T-cell
[4] = biological target: T1, Mitogen-activated protein kinase kinase kinase kinase 3 (Homo sapiens, UniProt Q8IVH8); assay: Inhibition of GLK (unknown origin)
T1 sequence (Q8IVH8 whole entry): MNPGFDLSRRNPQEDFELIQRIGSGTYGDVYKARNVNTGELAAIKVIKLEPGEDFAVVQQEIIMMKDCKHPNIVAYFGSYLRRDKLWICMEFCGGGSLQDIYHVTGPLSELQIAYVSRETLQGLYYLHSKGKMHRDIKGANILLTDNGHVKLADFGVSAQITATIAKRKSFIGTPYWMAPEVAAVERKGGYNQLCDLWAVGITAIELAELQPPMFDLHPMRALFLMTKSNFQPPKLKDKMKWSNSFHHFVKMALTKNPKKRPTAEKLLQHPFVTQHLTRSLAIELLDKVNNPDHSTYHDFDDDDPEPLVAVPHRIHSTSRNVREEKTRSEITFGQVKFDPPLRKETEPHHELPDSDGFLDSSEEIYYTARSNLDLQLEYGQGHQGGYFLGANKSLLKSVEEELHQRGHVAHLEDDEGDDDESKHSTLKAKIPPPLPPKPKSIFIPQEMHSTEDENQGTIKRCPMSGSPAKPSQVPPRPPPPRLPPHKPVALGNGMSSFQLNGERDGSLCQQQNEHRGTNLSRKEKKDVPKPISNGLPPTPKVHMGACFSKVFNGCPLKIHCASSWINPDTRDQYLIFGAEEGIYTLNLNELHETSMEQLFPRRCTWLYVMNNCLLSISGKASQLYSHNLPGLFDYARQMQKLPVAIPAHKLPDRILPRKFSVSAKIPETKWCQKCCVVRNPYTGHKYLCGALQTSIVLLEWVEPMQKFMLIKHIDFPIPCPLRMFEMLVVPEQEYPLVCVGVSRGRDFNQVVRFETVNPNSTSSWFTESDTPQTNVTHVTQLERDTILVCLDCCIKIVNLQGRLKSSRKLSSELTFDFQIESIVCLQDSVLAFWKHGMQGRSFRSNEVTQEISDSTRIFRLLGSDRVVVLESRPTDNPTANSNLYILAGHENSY

[5] = biological target: T2, Mitogen-activated protein kinase kinase kinase kinase 1 (Homo sapiens, UniProt Q92918); assay: Inhibition of human recombinant wild type N-terminal HPK1 (1 to 346 residues) infected in insect Sf21 cells using fluorescein-PKC as substrate preincubated for 10 mins followed by substrate addition and measured after 90 mins by microplate reader based analysis; format: single protein
T2 sequence (Q92918 whole entry, the tested form may be a part): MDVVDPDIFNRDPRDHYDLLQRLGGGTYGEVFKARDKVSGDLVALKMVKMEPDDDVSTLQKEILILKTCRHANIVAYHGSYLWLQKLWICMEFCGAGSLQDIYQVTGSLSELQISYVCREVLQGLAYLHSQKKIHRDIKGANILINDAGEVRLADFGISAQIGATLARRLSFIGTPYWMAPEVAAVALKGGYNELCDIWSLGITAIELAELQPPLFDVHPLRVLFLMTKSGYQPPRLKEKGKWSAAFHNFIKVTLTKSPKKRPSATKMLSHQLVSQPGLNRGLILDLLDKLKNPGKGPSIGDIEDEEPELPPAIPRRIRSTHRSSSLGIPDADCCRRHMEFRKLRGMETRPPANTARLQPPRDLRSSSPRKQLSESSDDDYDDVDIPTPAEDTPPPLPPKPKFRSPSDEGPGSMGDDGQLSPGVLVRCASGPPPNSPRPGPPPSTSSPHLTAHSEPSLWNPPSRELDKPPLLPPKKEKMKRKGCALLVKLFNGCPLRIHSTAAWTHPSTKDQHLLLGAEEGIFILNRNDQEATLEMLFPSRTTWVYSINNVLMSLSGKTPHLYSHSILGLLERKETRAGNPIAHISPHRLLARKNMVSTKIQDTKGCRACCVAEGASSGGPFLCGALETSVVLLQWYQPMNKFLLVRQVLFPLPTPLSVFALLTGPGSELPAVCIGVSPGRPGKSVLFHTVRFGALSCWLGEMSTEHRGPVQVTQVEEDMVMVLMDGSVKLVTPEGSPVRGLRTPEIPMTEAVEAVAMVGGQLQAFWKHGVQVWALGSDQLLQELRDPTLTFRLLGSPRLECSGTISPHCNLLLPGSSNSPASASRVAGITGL

[6] = biological target: T2, Mitogen-activated protein kinase kinase kinase kinase 1; assay: Inhibition of HPK1 in human PBMC cells assessed as IL-2 level pretreated for 4 hrs followed by anti-CD3/CD28 stimulation for 20 mins by HTRF method; format: cell-based
in vivo [7] = conditions: Balb/c, mouse, plasma, iv, 1 mg/kg
Description: Clearance in Balb/c mouse plasma at 1 mg/kg, iv

[8] = dog, in vivo, po, 2 mg/kg
in vivo [9] = conditions: Sprague-Dawley, rat, iv, 1 mg/kg
Description: Volume of distribution in Sprague-Dawley rat at 1 mg/kg, iv

in vivo [10] = conditions: Balb/c, mouse, iv, 1 mg/kg
Description: Volume of distribution in Balb/c mouse at 1 mg/kg, iv

[11] = Oral bioavailability in Balb/c mouse at 10 mg/kg; format: ADME, organism-based; conditions: in vivo
[12] = Oral bioavailability n Sprague-Dawley rat at 10 mg/kg; format: ADME, organism-based; conditions: in vivo
in vivo [13] = conditions: Beagle, dog, plasma, iv, 1 mg/kg
Description: Clearance in Beagle dog plasma at 1 mg/kg, iv

in vivo [14] = conditions: Beagle, dog, iv, 1 mg/kg
Description: Volume of distribution in Beagle dog at 1 mg/kg, iv

in vivo [15] = conditions: Beagle, dog, po, 2 mg/kg
[16] = Dose normalized AUC (0 to 24 hrs) in Sprague-Dawley rat at 10 mg/kg, po; format: ADME, organism-based; conditions: in vivo
[17] = Dose normalized AUC (0 to 24 hrs) in Balb/c mouse at 10 mg/kg, po; format: ADME, organism-based; conditions: in vivo
in vivo [18] = conditions: Beagle, dog, po, 2 mg/kg; remark: listed apart in the source
Description: Half life in Beagle dog at 2 mg/kg, po

[19] = Half life in Balb/c mouse at 10 mg/kg, po; format: ADME, organism-based; conditions: in vivo
in vivo [20] = conditions: Sprague-Dawley, rat, plasma, iv, 1 mg/kg
Description: Clearance in Sprague-Dawley rat plasma at 1 mg/kg, iv

[21] = Half life in Sprague-Dawley rat at 10 mg/kg, po; format: ADME, organism-based; conditions: in vivo
[22] = Volume of distribution in Balb/c mouse administered as iv dose; format: ADME, organism-based; conditions: in vivo
[23] = Oral bioavailability in Balb/c mouse; format: ADME, organism-based; conditions: in vivo
[24] = Half life in Balb/c mouse administered as po dose; format: ADME, organism-based; conditions: in vivo
[25] = Clearance in Balb/c mouse plasma administered as iv dose; format: ADME, organism-based
[26] = Dose normalized AUC (0 to 24 hrs) in Balb/c mouse administered as po dose; format: ADME, organism-based; conditions: in vivo
in vivo [27] = conditions: Sprague-Dawley, rat, po
Description: Oral bioavailability in Sprague-Dawley rat

in vivo [28] = conditions: Sprague-Dawley, rat, plasma, iv
Description: Clearance in Sprague-Dawley rat plasma administered as iv dose

in vivo [29] = conditions: Sprague-Dawley, rat, iv
Description: Volume of distribution in Sprague-Dawley rat administered as iv dose

in vivo [30] = conditions: Sprague-Dawley, rat, po; remark: listed apart in the source
Description: Half life in Sprague-Dawley rat administered as po dose

`CN(C)Cc1nc(Nc2ccc(-c3cnc4cc(F)ccn34)c3c2C(=O)NC3)ccc1C1CCOCC1` showed an IC50 [1] of 14 nM, an EC50 [2] of 35.3 nM and an EC50 [3] of 22.2 nM.

`COc1cc(Nc2ccc3c(n2)CN(C)C32CCOCC2)c(C(N)=O)nc1-c1cccc2c1ncn2C(F)F` showed an IC50 [4] of 322 nM, an IC50 [5] of less than 0.51 nM and an EC50 [6] of 102 nM.

Work on `CN1Cc2nc(Nc3cc(C4CC4)c(-c4cccc5c4ncn5C)nc3C(N)=O)ccc2C12CCN(C1COC1)CC2` yielded a clearance (in vivo [7]) of 13.2 mL/min/kg, an AUC/dose [8] of 289.2 ng·h/mL and a Vd (in vivo [9]) of 2.25 L/kg. The Vd (in vivo [10]) was 1.08 L/kg, the bioavailability [11] was 24.6% and the bioavailability [12] was 54.7%. The clearance (in vivo [13]) was 14.7 mL/min/kg, the IC50 [4] was 114 nM and the Vd (in vivo [14]) was 6 L/kg. It also gave a bioavailability (in vivo [15]) of 26.3%, an AUC/dose [16] of 4502 ng·h/mL and an AUC/dose [17] of 308.2 ng·h/mL. It also gave a half-life (in vivo [18]) of 6.06 h, a half-life [19] of 4.33 h and a clearance (in vivo [20]) of 19.8 mL/min/kg. The IC50 [5] was less than 0.51 nM, the EC50 [6] was 32.7 nM and the half-life [21] was 2.61 h.

`COc1cc(Nc2ccc3c(n2)CN(C)C32CCCC2)c(C(N)=O)nc1-c1cccc2c1ncn2C` showed an IC50 [4] of 162 nM, an IC50 [5] of less than 0.51 nM and an EC50 [6] of 149 nM.

For `CN1Cc2nc(Nc3cc(OC(F)F)c(-c4cccc5c4ncn5C)nc3C(N)=O)ccc2C12CCOCC2`, the IC50 [4] was 153 nM, the IC50 [5] was less than 0.51 nM and the EC50 [6] was 54.9 nM.

For `CN1Cc2nc(Nc3ccc(C4=CCCC(NC(=O)c5ccccc5)C4)nc3C(N)=O)ccc2C12CCOCC2` (stereo unspecified), the Vd [22] was 1.08 L/kg, the bioavailability [23] was 38.6% and the IC50 [4] was 28.4 nM. The half-life [24] was 0.93 h, the clearance [25] was 23.7 mL/min/kg and the AUC/dose [26] was 273.3 ng·h/mL. For the same molecule, the IC50 [5] was 0.64 nM.

`COc1cc(Nc2ccc3c(n2)CN(C)C32CCOCC2)c(C(N)=O)nc1-c1cncc2c1ncn2C` showed a bioavailability (in vivo [27]) of 24.3%, a clearance (in vivo [28]) of 32.6 mL/min/kg and a Vd (in vivo [29]) of 1.75 L/kg. The IC50 [4] was 241 nM, the half-life (in vivo [30]) was 1.22 h and the IC50 [5] was less than 0.51 nM. It also gave an EC50 [6] of 10 nM.

`CCN1Cc2nc(Nc3cc(OC)c(-c4cccc5c4ncn5C)nc3C(N)=O)ccc2C12CCOCC2` showed an IC50 [4] of 239 nM, an IC50 [5] of less than 0.51 nM and an EC50 [6] of 168 nM.

Work on `COc1cc(Nc2ccc3c(n2)CN(C)C32CCOCC2)c(C(N)=O)nc1-c1ccnc2c1ccn2C` yielded an IC50 [4] of 27 nM and an IC50 [5] of less than 0.51 nM.

Molecule `COc1cc(Nc2ccc3c(n2)CN(C)C32CCOCC2)c(C(N)=O)nc1-c1cncc2c1ccn2C` has an IC50 [4] of 95 nM and an IC50 [5] of less than 0.51 nM.
